Measured values taken from PMC5122408, “High throughput chemical library screening identifies a novel p110-δ inhibitor that potentiates the anti-myeloma effect of bortezomib” (Oncotarget, 2016).

Legend:
[1] = target: PKC2β (Homo sapiens, UniProt O00750); experiment: Kinase inhibitory profile; assay type: biochemical; settings: Class II PI3Ks; 10-point concentration assays
[2] = target: VPS34 (Homo sapiens, UniProt Q8NEB9); experiment: Kinase inhibitory profile; assay type: biochemical; settings: Class III PI3Ks; 10-point concentration assays
VPS34, sequence (Q8NEB9 whole entry): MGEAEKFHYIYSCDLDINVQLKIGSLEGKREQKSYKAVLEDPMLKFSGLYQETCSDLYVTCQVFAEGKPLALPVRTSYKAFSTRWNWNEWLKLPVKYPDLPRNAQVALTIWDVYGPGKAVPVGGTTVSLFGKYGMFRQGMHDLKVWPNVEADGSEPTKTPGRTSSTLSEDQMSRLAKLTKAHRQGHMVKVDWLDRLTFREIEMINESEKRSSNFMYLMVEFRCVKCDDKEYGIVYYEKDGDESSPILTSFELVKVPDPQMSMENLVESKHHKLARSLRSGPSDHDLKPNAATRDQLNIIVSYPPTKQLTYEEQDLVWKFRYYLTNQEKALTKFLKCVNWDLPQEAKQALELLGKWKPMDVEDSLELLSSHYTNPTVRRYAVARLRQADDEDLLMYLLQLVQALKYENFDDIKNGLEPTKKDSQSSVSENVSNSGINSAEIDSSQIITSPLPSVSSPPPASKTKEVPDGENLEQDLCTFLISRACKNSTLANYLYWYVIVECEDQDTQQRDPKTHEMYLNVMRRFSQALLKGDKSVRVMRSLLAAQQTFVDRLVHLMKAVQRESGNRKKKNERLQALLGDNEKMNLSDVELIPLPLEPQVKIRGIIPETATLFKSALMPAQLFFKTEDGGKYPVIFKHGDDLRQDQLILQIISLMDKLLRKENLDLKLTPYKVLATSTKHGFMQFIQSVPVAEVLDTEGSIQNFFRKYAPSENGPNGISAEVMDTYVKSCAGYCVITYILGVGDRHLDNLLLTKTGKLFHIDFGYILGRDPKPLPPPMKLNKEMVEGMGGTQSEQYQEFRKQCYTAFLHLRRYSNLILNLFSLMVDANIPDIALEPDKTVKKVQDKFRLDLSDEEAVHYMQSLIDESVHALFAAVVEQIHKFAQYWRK

[3] = test system: FGFR; experiment: Kinase inhibitory profile; assay type: biochemical; settings: Other Clinically-relevant Kinases; 10-point concentration assays
[4] = test system: CCRF-CEM; experiment: NCI-60 panel cell growth screen; assay type: cell-based, human; settings: CCRF-CEM (Leukemia)
[5] = test system: HOP-62; experiment: NCI-60 panel cell growth screen; assay type: cell-based, human; settings: HOP-62 (NSCLC)
[6] = test system: NCI-H522; experiment: NCI-60 panel cell growth screen; assay type: cell-based, human; settings: NCI-H522 (NSCLC)
[7] = test system: HT29; experiment: NCI-60 panel cell growth screen; assay type: cell-based, human; settings: HT29 (Colon cancer)
[8] = test system: SW-620; experiment: NCI-60 panel cell growth screen; assay type: cell-based, human; settings: SW-620 (Colon cancer)
[9] = test system: CXCR12; experiment: CXCL12/SDF-1 alpha ELISA, MM cells co-cultured with BMSCs; assay type: cell-based, human
[10] = test system: ERK1/2; experiment: Immunoblot of ERK1/2 phosphorylation in MM cells; assay type: cell-based; settings: DT97 500 nm or 1 uM for 48 h
[11] = test system: RPMI8226 cells; experiment: XTT viability of RPMI8226 cells after PIK3CD shRNA knockdown; assay type: cell-based; settings: XTT assay
Protocol: Values represent the average of triplicate measurements. […] Values represent the average of triplicate measurements. […] Values represent the average of triplicate measurements.
Cells were plated, treated as indicated for 72 h and 2, 3-bis-(2-methoxy-4-nitro-5-sulfophenyl)-2H-tetrazolium-5-carboxanilide) added (Sigma-Aldrich) after activation with N-methyl dibenzopyrazine methyl sulfate (Sigma-Aldrich). Absorbance was measured and the effect on myeloma viability determined as previously described. Assays were performed in triplicate and the mean and standard deviation determined. Relative cell viability (mean ± SD) was calculated compared to readings from untreated cells.
shRNA in pLKO.1-TCR lentiviral cloning vectors were transfected into 293T packaging cells with packaging and envelope vector using lipofectamine 2000 (Thermo-Fisher). Viral supernatants were used to transduce myeloma cells. After 48 h, virus was collected and RPMI8226 cells transduced with vectors expressing scrambled (control) or p110-specific shRNA. Cells were mixed with virus and polybrene (8 μg/mL), centrifuged at 2000 × rpm for 90 min, incubated overnight, media changed and selected in puromycin.

[12] = read-out: LC50 (the source's name)

PKC2β, sequence (O00750 whole entry): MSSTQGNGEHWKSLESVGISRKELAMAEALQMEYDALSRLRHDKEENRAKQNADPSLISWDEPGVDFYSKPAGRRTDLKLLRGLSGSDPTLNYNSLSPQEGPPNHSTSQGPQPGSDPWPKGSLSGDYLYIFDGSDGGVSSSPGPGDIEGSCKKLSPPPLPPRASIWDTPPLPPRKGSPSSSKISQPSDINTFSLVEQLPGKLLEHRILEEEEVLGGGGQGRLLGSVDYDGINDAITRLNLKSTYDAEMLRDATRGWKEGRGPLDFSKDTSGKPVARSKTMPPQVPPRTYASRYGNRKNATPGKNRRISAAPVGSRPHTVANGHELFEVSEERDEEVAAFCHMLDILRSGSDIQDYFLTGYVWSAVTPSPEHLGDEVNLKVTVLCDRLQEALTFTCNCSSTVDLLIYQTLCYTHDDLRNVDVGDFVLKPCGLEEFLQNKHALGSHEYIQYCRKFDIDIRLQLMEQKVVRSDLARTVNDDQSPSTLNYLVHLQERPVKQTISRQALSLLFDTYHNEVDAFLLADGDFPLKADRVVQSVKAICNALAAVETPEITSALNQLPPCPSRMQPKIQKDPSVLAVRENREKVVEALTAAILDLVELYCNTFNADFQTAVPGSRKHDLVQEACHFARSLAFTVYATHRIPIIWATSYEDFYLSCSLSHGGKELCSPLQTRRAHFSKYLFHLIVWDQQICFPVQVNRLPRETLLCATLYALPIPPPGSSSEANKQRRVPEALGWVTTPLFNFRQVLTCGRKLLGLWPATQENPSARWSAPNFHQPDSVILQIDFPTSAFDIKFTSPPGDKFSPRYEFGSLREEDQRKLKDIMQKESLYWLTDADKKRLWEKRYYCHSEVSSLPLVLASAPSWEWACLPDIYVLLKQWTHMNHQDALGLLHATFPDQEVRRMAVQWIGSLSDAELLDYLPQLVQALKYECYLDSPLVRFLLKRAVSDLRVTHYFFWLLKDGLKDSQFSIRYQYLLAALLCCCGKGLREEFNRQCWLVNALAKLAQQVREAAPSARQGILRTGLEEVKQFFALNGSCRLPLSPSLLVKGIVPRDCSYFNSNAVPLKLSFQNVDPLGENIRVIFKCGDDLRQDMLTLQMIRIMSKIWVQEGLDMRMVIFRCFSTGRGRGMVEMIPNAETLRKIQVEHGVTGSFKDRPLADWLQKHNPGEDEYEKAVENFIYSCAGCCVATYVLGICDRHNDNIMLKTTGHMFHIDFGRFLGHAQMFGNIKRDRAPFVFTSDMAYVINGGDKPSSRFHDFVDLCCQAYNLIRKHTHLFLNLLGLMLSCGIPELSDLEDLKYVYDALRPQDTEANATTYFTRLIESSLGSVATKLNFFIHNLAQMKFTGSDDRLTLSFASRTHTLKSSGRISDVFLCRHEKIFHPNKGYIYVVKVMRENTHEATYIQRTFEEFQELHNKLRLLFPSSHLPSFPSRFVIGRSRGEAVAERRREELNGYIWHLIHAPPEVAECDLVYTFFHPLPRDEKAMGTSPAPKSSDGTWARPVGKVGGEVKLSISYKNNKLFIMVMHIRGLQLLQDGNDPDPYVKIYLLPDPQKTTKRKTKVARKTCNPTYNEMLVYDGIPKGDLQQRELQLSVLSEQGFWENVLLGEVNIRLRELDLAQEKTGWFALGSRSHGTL

“N-[4-hydroxy-3-(8-quinolinylthio)-1-naphthyl]benzenesulfonamide [DT97]” was tested, and the “Inhibitory profile (kinase inhibition)” value [1] was “+”, the “Inhibitory profile (kinase inhibition)” value [2] was “none” and the “Inhibitory profile (kinase inhibition)” value [3] was “none”. The GI50 [4] was 0.426 µM, the TGI [4] was 1.60E-5 and the “Percent Growth” value ([4]; log concentration −4.0) was −7%. For the same substance, the “Percent Growth” value ([4]; log concentration −5.0) was 2%, the “Percent Growth” value ([4]; log concentration −6.0) was 17% and the “Percent Growth” value ([4]; log concentration −7.0) was 106%. For the same substance, the “Percent Growth” value ([4]; log concentration −8.0) was 104%, the CC50 [4, 12] was over 100 µM and the GI50 [5] was 1.01 µM. The TGI [5] was 2.54E-5, the “Percent Growth” value ([5]; log concentration −4.0) was −37% and the “Percent Growth” value ([5]; log concentration −5.0) was 26%. For the same substance, the “Percent Growth” value ([5]; log concentration −6.0) was 50%, the “Percent Growth” value ([5]; log concentration −7.0) was 95% and the “Percent Growth” value ([5]; log concentration −8.0) was 93%. The GI50 [6] was 2.12 µM, the TGI [6] was 8.17E-6 and the “Percent Growth” value ([6]; log concentration −4.0) was −48%. For the same substance, the “Percent Growth” value ([6]; log concentration −5.0) was −7%, the “Percent Growth” value ([6]; log concentration −6.0) was 68% and the “Percent Growth” value ([6]; log concentration −7.0) was 95%. For the same substance, the “Percent Growth” value ([6]; log concentration −8.0) was 95%, the GI50 [7] was 2.42 µM and the TGI [7] was 1.44E-5. For the same substance, the “Percent Growth” value ([7]; log concentration −4.0) was −44%, the “Percent Growth” value ([7]; log concentration −5.0) was 8% and the “Percent Growth” value ([7]; log concentration −6.0) was 76%. The “Percent Growth” value ([7]; log concentration −7.0) was 108%, the “Percent Growth” value ([7]; log concentration −8.0) was 103% and the CC50 [7, 12] was over 100 µM. For the same substance, the GI50 [8] was 1.04 µM, the TGI [8] was 1.16E-5 and the “Percent Growth” value ([8]; log concentration −4.0) was −49%. The “Percent Growth” value ([8]; log concentration −5.0) was 3%, the “Percent Growth” value ([8]; log concentration −6.0) was 51% and the “Percent Growth” value ([8]; log concentration −7.0) was 88%. For the same substance, the “Percent Growth” value ([8]; log concentration −8.0) was 94%, the CC50 [8, 12] was over 100 µM and the “production of CXCR12” value [9] was “induction was inhibited”. For the same substance, the “phosphorylation of ERK1/2 at Thre202/Tyr-204” value [10] was “reduced the phosphorylation” and the viability [11] was “little effect”.
